Common to all, as to type: biochemical
One assay has as its target T1, TEC (Homo sapiens, UniProt P42680).
T1 sequence (P42680 1-631): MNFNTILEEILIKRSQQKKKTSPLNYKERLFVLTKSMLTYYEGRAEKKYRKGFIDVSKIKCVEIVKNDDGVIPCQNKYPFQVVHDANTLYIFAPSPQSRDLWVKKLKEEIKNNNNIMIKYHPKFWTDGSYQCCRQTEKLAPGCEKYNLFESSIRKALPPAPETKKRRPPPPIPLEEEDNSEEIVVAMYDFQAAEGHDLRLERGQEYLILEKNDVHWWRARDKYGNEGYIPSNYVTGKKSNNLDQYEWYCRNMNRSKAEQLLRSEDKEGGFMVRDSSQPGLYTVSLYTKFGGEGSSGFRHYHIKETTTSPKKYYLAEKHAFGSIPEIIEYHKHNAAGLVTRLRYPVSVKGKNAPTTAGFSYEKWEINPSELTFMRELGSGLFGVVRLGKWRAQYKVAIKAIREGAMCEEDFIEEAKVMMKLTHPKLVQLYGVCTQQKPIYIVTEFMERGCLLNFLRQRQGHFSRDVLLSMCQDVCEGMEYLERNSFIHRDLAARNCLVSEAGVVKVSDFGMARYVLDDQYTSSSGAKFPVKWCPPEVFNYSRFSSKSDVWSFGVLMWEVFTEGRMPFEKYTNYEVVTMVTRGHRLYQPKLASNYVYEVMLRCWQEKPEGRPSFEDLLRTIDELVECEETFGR
The assay is described as follows: Inhibition of a panel of kinases, in vitro HotSpot kinase assay: TEC. The following applies: D-compounds panel data; 1 μM ATP. On the procedure:
(§1) The degree of inhibition of a panel of kinases is determined using the in vitro HotSpot kinase assay (purified enzymes, ^33P-ATP, an appropriate substrate and 1 μM ATP).

Another assay deals with T2, JAK3 (Homo sapiens, UniProt P52333).
T2 sequence (P52333 1-1124): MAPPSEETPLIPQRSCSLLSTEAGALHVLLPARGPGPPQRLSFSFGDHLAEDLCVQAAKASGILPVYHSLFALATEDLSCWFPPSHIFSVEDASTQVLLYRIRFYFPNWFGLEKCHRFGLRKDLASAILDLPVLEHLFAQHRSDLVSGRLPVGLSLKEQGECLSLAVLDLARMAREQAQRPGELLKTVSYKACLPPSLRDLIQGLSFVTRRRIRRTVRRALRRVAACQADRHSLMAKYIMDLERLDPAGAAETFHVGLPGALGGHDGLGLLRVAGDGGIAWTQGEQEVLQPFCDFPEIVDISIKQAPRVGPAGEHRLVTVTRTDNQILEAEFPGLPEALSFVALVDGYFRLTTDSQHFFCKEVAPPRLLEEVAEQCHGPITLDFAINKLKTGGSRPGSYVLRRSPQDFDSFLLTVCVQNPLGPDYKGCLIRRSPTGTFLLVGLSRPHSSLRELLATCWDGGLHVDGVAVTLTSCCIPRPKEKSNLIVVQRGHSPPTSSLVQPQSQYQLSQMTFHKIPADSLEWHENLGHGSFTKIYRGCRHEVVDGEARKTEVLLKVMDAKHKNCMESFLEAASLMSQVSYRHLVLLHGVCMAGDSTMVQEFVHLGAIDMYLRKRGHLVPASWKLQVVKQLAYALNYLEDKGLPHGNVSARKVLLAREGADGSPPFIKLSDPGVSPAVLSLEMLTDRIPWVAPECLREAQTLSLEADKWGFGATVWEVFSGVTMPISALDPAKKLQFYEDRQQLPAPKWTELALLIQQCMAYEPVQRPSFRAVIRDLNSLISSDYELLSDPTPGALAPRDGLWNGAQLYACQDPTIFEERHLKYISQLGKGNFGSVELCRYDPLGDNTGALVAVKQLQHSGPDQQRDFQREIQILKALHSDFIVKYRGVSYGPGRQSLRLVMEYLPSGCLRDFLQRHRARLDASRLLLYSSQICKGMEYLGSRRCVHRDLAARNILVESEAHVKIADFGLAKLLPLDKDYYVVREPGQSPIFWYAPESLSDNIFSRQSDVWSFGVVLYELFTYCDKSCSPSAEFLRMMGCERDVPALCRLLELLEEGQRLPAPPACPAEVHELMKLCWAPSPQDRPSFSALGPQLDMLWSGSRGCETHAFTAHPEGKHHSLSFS
Nature of the assay: Inhibition of a panel of kinases, in vitro HotSpot kinase assay: JAK3. The following applies: D-compounds panel data; 1 μM ATP; read-out: IC50 JAK3.

The target of the next assay is SRC (Homo sapiens, UniProt P12931). The assay is described as follows: Inhibition of a panel of kinases, in vitro HotSpot kinase assay: SRC. To be noted: D-compounds panel data; 1 μM ATP. How it is done: as §1
Sequence of SRC (P12931 whole entry): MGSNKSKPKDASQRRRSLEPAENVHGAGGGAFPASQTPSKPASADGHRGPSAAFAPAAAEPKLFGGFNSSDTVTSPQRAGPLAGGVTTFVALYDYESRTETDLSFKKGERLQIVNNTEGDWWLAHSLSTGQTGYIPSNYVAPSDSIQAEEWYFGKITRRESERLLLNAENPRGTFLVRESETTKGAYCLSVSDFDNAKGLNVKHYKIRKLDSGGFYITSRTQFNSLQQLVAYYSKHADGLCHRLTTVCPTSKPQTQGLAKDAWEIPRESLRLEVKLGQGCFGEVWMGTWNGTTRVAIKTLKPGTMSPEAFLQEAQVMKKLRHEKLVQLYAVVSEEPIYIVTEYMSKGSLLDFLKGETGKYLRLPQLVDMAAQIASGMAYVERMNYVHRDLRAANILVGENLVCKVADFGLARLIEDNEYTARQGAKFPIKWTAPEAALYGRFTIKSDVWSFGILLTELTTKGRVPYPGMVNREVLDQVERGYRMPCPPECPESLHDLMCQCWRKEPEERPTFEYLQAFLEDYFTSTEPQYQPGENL

As usually defined, the IC50 is the concentration that inhibits the measured activity by half.

For `CN1CCC(n2cc(Nc3nc(N4CCC[C@@H](n5ccc6cc(C7CC7)ccc6c5=O)C4)cnc3C(N)=O)cn2)CC1` [Example D-141, 5-[(3R)-3-(6-cyclopropyl-1-oxo-1,2-dihydroisoquinolin-2-yl)piperidin-1-yl]-3-{[1-(1-methylpiperidin-4-yl)-1H-pyrazol-4-yl]amino}pyrazine-2-carboxamide], the IC50 against TEC lay within 10 to 100 nM; at JAK3, 1000 to 10000 nM; at SRC, 100 to 1000 nM.

With `C[C@@H]1[C@H](NC(=O)c2ccc(C3CC3)cc2)CCCN1c1cnc(C(N)=O)c(Nc2ccc(N3CCN(CC(F)(F)F)CC3)cc2)n1` [Example D-97, 5-[(2R,3R)-3-(4-cyclopropylbenzamido)-2-methylpiperidin-1-yl]-3-({4-[4-(2,2,2-trifluoroethyl)piperazin-1-yl]phenyl}amino)pyrazine-2-carboxamide], the half-inhibitory concentration (IC50) on TEC was 10 to 100 nM; at JAK3 it was 1000 to 10000 nM; against SRC it was 100 to 1000 nM.

Regarding `C[C@@H]1CC[C@H](NC(=O)c2ccc(C3CC3)cc2)CN1c1cnc(C(N)=O)c(Nc2ccc(N3CCN(C)CC3)c(F)c2)n1` [Example D-149, 5-[(2R,5 S)-5-(4-cyclopropylbenzamido)-2-methylpiperidin-1-yl]-3-{[3-fluoro-4-(4-methylpiperazin-1-yl)phenyl]amino}pyrazine-2-carboxamide], the values for the half-maximal inhibitory concentration (IC50) against TEC, at JAK3 and against SRC were 100 to 1000 nM, 1000 to 10000 nM and 100 to 1000 nM, respectively.

For the compound `CNC(=O)N[C@@H]1CCCN(c2cnc(C(N)=O)c(Nc3cnn(C)c3)n2)[C@@H]1C` [Example D-109, 3-[(1-methyl-1H-pyrazol-4-yl)amino]-5-[(2R,3R)-2-methyl-3-[(methylcarbamoyl)amino]piperidin-1-yl]pyrazine-2-carboxamide], the half-inhibitory concentration (IC50) against TEC lay in the range of 10 to 100 nM; at JAK3, 1000 to 10000 nM; against SRC it was 100 to 1000 nM.

Take `C[C@@H]1[C@H](NC(=O)N(C)C)CCCN1c1cnc(C(N)=O)c(Nc2ccc(C(=O)N3CCN(C)CC3)cc2)n1` [Example D-110, 5-[(2R,3R)-3-[(dimethylcarbamoyl)amino]-2-methylpiperidin-1-yl]-3-{[4-(4-methylpiperazine-1-carbonyl)phenyl]amino}pyrazine-2-carboxamide]: the IC50 on TEC was 100 to 1000 nM; on JAK3, 1000 to 10000 nM; against SRC, 100 to 1000 nM.

Take `CN1CCN(Cc2ccc(Nc3nc(N4CCC[C@@H](n5ccc6cc(C7CC7)ccc6c5=O)C4)cnc3C(N)=O)cc2)CC1` [Example D-167, 5-[(3R)-3-(6-cyclopropyl-1-oxo-1,2-dihydroisoquinolin-2-yl)piperidin-1-yl]-3-({4-[(4-methylpiperazin-1-yl)methyl]phenyl}amino)pyrazine-2-carboxamide]: the figures for the IC50 on TEC, on JAK3 and at SRC were 10 to 100 nM, 100 to 1000 nM and 100 to 1000 nM, respectively.

As to `C[C@@H]1[C@H](NC(=O)c2ccc(C3CC3)cc2F)CCCN1c1cnc(C(N)=O)c(Nc2ccn(C)n2)n1` [Example D-129, 5-[(2R,3R)-3-(4-cyclopropyl-2-fluorobenzamido)-2-methylpiperidin-1-yl]-3-[(1-methyl-1H-pyrazol-3-yl)amino]pyrazine-2-carboxamide], the IC50 at TEC, on JAK3 and against SRC was above 10000 nM throughout.

With `Cc1ccc(-c2cnc([C@@H]3CCCN(c4cnc(C(N)=O)c(Nc5cc(C)ns5)n4)[C@@H]3C)[nH]2)cc1` [Example D-131, 3-[(3-methyl-1,2-thiazol-5-yl)amino]-5-[(2R,3R)-2-methyl-3-[5-(4-methylphenyl)-1H-imidazol-2-yl]piperidin-1-yl]pyrazine-2-carboxamide], the IC50 at TEC, at JAK3 and at SRC was 100 to 1000 nM throughout.

For the compound `COC(C)(C)c1ccc(C(=O)N[C@@H]2CCCN(c3cnc(C(N)=O)c(Nc4cnn(C)c4)n3)[C@@H]2C)cc1` [Example D-161, 5-[(2R,3R)-3-[4-(2-methoxypropan-2-yl)benzamido]-2-methylpiperidin-1-yl]-3-[(1-methyl-1H-pyrazol-4-yl)amino]pyrazine-2-carboxamide], the values for the half-maximal inhibitory concentration (IC50) against TEC, on JAK3 and against SRC were at most 10 nM, 1000 to 10000 nM and 10 to 100 nM, respectively.

Turning to `NC(=O)c1ncc(N2CCC[C@@H](n3ccc4cc(C5CC5)ccc4c3=O)C2)nc1Nc1ccc2ncccc2c1` [Example D-168, 5-[(3R)-3-(6-cyclopropyl-1-oxo-1,2-dihydroisoquinolin-2-yl)piperidin-1-yl]-3-[(quinolin-6-yl)amino]pyrazine-2-carboxamide], the values for the IC50 on TEC, on JAK3 and against SRC were 100 to 1000 nM, above 10000 nM and above 10000 nM, respectively.

`C[C@@H]1[C@H](NC(=O)N(C)C)CCCN1c1cnc(C(N)=O)c(Nc2ccc3cccnc3c2)n1` [Example D-121, 5-[(2R,3R)-3-[(dimethylcarbamoyl)amino]-2-methylpiperidin-1-yl]-3-[(quinolin-7-yl)amino]pyrazine-2-carboxamide]: the concentration for half-maximal inhibition (IC50) against TEC lay within 1000 to 10000 nM; on JAK3, 1000 to 10000 nM; against SRC, 100 to 1000 nM.

Take `Cc1cc(Nc2cc(N3CCC[C@@H](NC(=O)c4ccc(C5CC5)cc4F)[C@H]3C)cnc2C(N)=O)sn1` [Example D-116, 5-[(2R,3R)-3-(4-cyclopropyl-2-fluorobenzamido)-2-methylpiperidin-1-yl]-3-[(3-methyl-1,2-thiazol-5-yl)amino]pyridine-2-carboxamide]: the IC50 is 100 to 1000 nM at TEC, 1000 to 10000 nM at JAK3 and 100 to 1000 nM at SRC.

Turning to `C[C@@H]1[C@H](NC(=O)c2ccc(C3CC3)cc2F)CCCN1c1cnc(C(N)=O)c(Nc2cnn(C)c2)c1` [Example D-117, 5-[(2R,3R)-3-(4-cyclopropyl-2-fluorobenzamido)-2-methylpiperidin-1-yl]-3-[(1-methyl-1H-pyrazol-4-yl)amino]pyridine-2-carboxamide], the IC50 against TEC fell in the range of 100 to 1000 nM; at JAK3 it was 1000 to 10000 nM; at SRC it was 100 to 1000 nM.

Turning to `C[C@@H]1[C@H](NC(=O)Nc2cccnc2)CCCN1c1cnc(C(N)=O)c(Nc2ccc(C3(C)CCN(C4CCCC4)CC3)cc2)n1` [Example D-9, 3-{[4-(1-cyclopentyl-4-methylpiperidin-4-yl)phenyl]amino}-5-[(2R,3R)-2-methyl-3-{[(pyridin-3-yl)carbamoyl]amino}piperidin-1-yl]pyrazine-2-carboxamide], the 50% inhibitory concentration (IC50) is 10 to 100 nM at TEC, 100 to 1000 nM at JAK3 and at most 10 nM at SRC.

With `Cc1nsc(Nc2nc(N3CCC[C@@H](NC(=O)N(C)C)[C@H]3C)cnc2C(N)=O)c1C` [Example D-119, 3-[(dimethyl-1,2-thiazol-5-yl)amino]-5-[(2R,3R)-3-[(dimethylcarbamoyl)amino]-2-methylpiperidin-1-yl]pyrazine-2-carboxamide], the IC50 is above 10000 nM against TEC, above 10000 nM on JAK3 and 1000 to 10000 nM against SRC.

For the compound `C[C@@H]1[C@H](NC(=O)c2ccc(C3CC3)cc2)CCCN1c1cnc(C(N)=O)c(Nc2ccc(OC3C[C@H]4CC[C@@H](C3)N4C)cc2)n1` (stereo partly drawn) [Example D-104, 5-[(2R,3R)-3-(4-cyclopropylbenzamido)-2-methylpiperidin-1-yl]-3-[(4-{[(1R,5S)-8-methyl-8-azabicyclo[3.2.1]octan-3-yl]oxy}phenyl)amino]pyrazine-2-carboxamide], the IC50 on TEC is at most 10 nM; on JAK3, 100 to 1000 nM; on SRC, 10 to 100 nM.

The record behind these values is patent US20210070748A1, “INHIBITORS OF BRUTONS TYROSINE KINASE” (Pharmacyclics LLC, priority 2015, published 2021).
